Measured values taken from PubChem BioAssay AID1671247.

Target: Casein kinase I isoform gamma-2 (Homo sapiens) (UniProt P78368)
Test: PubChem AID 1671247
Details: Z'-LYTE FRET kinase activity assay

Sequence of Casein kinase I isoform gamma-2 (Homo sapiens) (P78368 whole entry, looked up, canonical isoform): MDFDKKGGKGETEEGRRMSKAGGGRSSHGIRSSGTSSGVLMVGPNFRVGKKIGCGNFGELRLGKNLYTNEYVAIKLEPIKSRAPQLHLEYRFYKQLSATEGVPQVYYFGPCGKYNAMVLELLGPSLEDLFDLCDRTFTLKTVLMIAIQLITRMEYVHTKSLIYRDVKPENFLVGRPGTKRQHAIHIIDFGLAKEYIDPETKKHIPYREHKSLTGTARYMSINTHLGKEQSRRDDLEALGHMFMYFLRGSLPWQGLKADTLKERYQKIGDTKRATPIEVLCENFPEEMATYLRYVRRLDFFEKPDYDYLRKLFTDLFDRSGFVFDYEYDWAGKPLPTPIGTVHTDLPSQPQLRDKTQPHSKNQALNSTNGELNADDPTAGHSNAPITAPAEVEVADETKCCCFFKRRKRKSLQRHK

IC50: 26.5 µM
SMILES: Brc1c(Br)c(Br)c2n[nH]nc2c1Br
